# Reference: EP3345917A1, “ANTIPROTOZOAL COMPOUNDS” (Bacoba AG, priority 2017, dated 2018)
# Non-standard residues stand in square brackets, D forms with d. Residues, ends and D or L forms follow the SMILES beside them. *: point of attachment. NHCH2CH2(piperidin-1-yl) = C1CCN(CCN*)CC1; Dansyl = CN(C)c1cccc2c(S(=O)(=O)*)cccc12; NH((S)CH(Me)CH2NMe2) = C[C@@H](CN(C)C)N*; NH(2-morpholinoethyl) = C(CN1CCOCC1)N*; Gly(octyl) = CCCCCCCC[C@H](N)C(=O)O; X11 = C[C@@H]1CN(CCN*)C[C@H](C)O1; Lauroyl = CCCCCCCCCCCC(=O)*; NHCH2CH2NMe2 = CN(C)CCN*; Hexanoyl = CCCCCC(=O)*; X13 = O=C(CCN1CCOCC1)*; Aib = CC(C)(N)C(=O)O; X2 = CN(C)CCN(C)*; Ms = CS(=O)(=O)*; βAla = NCCC(=O)O
# Tests used:
# [1] = test system: Trypanosoma brucei rhodesiense (STIB 900 strain); experiment: Alamar Blue assay against Trypanosoma brucei rhodesiense grown in axenic medium; type: cell-based; conditions: In vitro inhibition, read-out: T.b.rhod.
# Summary of the method: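 Alamar Blue-based IC50 determination, in triplicate, on axenically grown STIB 900 trypanosomes. Melarsoprol included as reference.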
# [2] = test system: Axenically grown Leishmania donovani amastigotes (strain MHOM/ET/67/L82); experiment: Axenic Leishmania donovani amastigote resazurin assay; type: cell-based; conditions: In vitro inhibition, read-out: L.don. ax
# Summary of the method: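 IC50 values derive from resazurin fluorescence (ex 536 nm, em 588 nm), expressed relative to the negative control, after 2-4 hours of plate development. Axenic amastigotes of strain MHOM/ET/67/L82 were used; each test run in triplicate.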
# [3] = test system: Trypanosoma cruzi trypomastigote forms (Tulahuen strain); experiment: Intracellular Trypanosoma cruzi assay in L6-cells, beta-galactosidase/CPRG readout; type: cell-based; conditions: In vitro inhibition, read-out: T.cruzi.
# Summary of the method: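 Readout was β-galactosidase cleavage of CPRG, read photometrically at 540 nm after 2–6 h colour development, giving IC50 values. Parasites: LacZ-expressing Tulahuen C2C4 strain grown in rat L6 myoblasts; run in triplicate.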
# Plasmodium falciparum = experiment: 3H-hypoxanthine incorporation assay against Plasmodium falciparum; type: cell-based; conditions: In vitro inhibition, read-out: P.falc NF5
# Experimental: (§1) Tests were done in triplicate.
# IC50 values were calculated by linear interpolation.
# [4] = test system: intracellular Leishmania donovani (L.don. InMac); experiment: Intracellular Leishmania donovani assay (L.don. InMac); type: cell-based; conditions: In vitro inhibition
# Excerpt: as §1
# [5] = Cytotoxicity assay on L6-cells (Alamar Blue); conditions: rat, Cytotox L6, Cytotoxicity against rat myoblast cells (L6)
Compound,IC50 [1],IC50 [2],IC50 [3],IC50 (Plasmodium falciparum),IC50 [4],IC50 at 70 h [5]
"CCCCCCCC[C@H](NC(=O)[C@@H]1CCCN1C(=O)CCCCC)C(=O)N[C@@H](CC(C)C)C(=O)NC(C)(C)C(=O)N[C@@H](CC(C)C)C(=O)N[C@@H](CC(C)C)C(=O)NC(C)(C)C(=O)NC(C)(C)C(=O)NCCC(=O)NCCN(C)C [Compound 5643, (2S)-N-[(1S)-1-[(1-{[(1S)-1-{[(1S)-1-{[1-({1-[(2-{[2-(dimethylamino)ethyl]carbamoyl}ethyl)carbamoyl]-1-methylethyl}carbamoyl)-1-methylethyl]carbamoyl}-3-methylbutyl]carbamoyl}-3-methylbutyl]carbamoyl}-1-methylethyl)carbamoyl]-3-methylbutyl]-2-{[(2S)-1-hexanoylpyrrolidin-2-yl]formamido}decanamide] (Hexanoyl-P[Gly(octyl)]L[Aib]LL[Aib][Aib][βAla]-NHCH2CH2NMe2)",4.9 nM,3.6 nM,89.8 nM,3 nM,107 nM,862 nM
"CCCCCCCC[C@H](NC(=O)[C@@H]1CCCN1C(=O)CCCCC)C(=O)N[C@@H](CC(C)C)C(=O)NC(C)(C)C(=O)N[C@@H](CC(C)C)C(=O)N[C@@H](CC(C)C)C(=O)NC(C)(C)C(=O)NC(C)(C)C(=O)NCCC(=O)N(C)CCN(C)C [Compound 5644, (2S)-N-[(1S)-1-[(1-{[(1S)-1-{[(1S)-1-{[1-({1-[(2-{[2-(dimethylamino)ethyl](methyl)carbamoyl}ethyl)carbamoyl]-1-methylethyl}carbamoyl)-1-methylethyl]carbamoyl}-3-methylbutyl]carbamoyl}-3-methylbutyl]carbamoyl}-1-methylethyl)carbamoyl]-3-methylbutyl]-2-{[(2S)-1-hexanoylpyrrolidin-2-yl]formamido}decanamide] (Hexanoyl-P[Gly(octyl)]L[Aib]LL[Aib][Aib][βAla]-X2)",208 nM,148 nM,1470 nM,26 nM,844 nM,1240 nM
"CCCCCCCC[C@H](NC(=O)[C@@H]1CCCN1C(=O)CCCCC)C(=O)N[C@@H](CC(C)C)C(=O)NC(C)(C)C(=O)N[C@@H](CC(C)C)C(=O)N[C@@H](CC(C)C)C(=O)NC(C)(C)C(=O)NC(C)(C)C(=O)NCCC(=O)NCCN1CCOCC1 [Compound 5646, (2S)-2-{[(2S)-1-hexanoylpyrrolidin-2-yl]formamido}-N-[(1S)-3-methyl-1-[(1-methyl-1-{[(1S)-3-methyl-1-{[(1S)-3-methyl-1-{[1-methyl-1-({1-methyl-1-[(2-{[2-(morpholin-4-yl)ethyl]carbamoyl}ethyl)carbamoyl]ethyl}carbamoyl)ethyl]carbamoyl}butyl]carbamoyl}butyl]carbamoyl}ethyl)carbamoyl]butyl]decanamide] (Hexanoyl-P[Gly(octyl)]L[Aib]LL[Aib][Aib][βAla]-{NH(2-morpholinoethyl)})",212 nM,1.6 nM,392 nM,22.4 nM,99.5 nM,1460 nM
"CCCCCCCC[C@H](NC(=O)[C@@H]1CCCN1C(=O)CCCCC)C(=O)N[C@@H](CC(C)C)C(=O)NC(C)(C)C(=O)N[C@@H](CC(C)C)C(=O)N[C@@H](CC(C)C)C(=O)NC(C)(C)C(=O)NC(C)(C)C(=O)NCCC(=O)NCCN1CCCCC1 [Compound 5647, (2S)-2-{[(2S)-1-hexanoylpyrrolidin-2-yl]formamido}-N-[(1S)-3-methyl-1-[(1-methyl-1-{[(1S)-3-methyl-1-{[(1S)-3-methyl-1-{[1-methyl-1-({1-methyl-1-[(2-{[2-(piperidin-1-yl)ethyl]carbamoyl}ethyl)carbamoyl]ethyl}carbamoyl)ethyl]carbamoyl}butyl]carbamoyl}butyl]carbamoyl}ethyl)carbamoyl]butyl]decanamide] (Hexanoyl-P[Gly(octyl)]L[Aib]LL[Aib][Aib][βAla]-{NHCH2CH2(piperidin-1-yl)})",3.6 nM,3 nM,13.4 nM,0.6 nM,62.1 nM,182 nM
"CCCCCCCC[C@H](NC(=O)[C@@H]1CCCN1C(=O)CCCCC)C(=O)N[C@@H](CC(C)C)C(=O)NC(C)(C)C(=O)N[C@@H](CC(C)C)C(=O)N[C@@H](CC(C)C)C(=O)NC(C)(C)C(=O)NC(C)(C)C(=O)NCCC(=O)NCCN1C[C@@H](C)O[C@@H](C)C1 [Compound 5648, (2S)-N-[(1S)-1-[(1-{[(1S)-1-{[(1S)-1-({1-[(1-{[2-({2-[(2R,6S)-2,6-dimethylmorpholin-4-yl]ethyl}carbamoyl)ethyl]carbamoyl}-1-methylethyl)carbamoyl]-1-methylethyl}carbamoyl)-3-methylbutyl]carbamoyl}-3-methylbutyl]carbamoyl}-1-methylethyl)carbamoyl]-3-methylbutyl]-2-{[(2S)-1-hexanoylpyrrolidin-2-yl]formamido}decanamide] (Hexanoyl-P[Gly(octyl)]L[Aib]LL[Aib][Aib][βAla]-X11)",54.7 nM,0.5 nM,229 nM,26.9 nM,186 nM,2280 nM
"CCCCCCCC[C@H](NC(=O)[C@@H]1CCCN1C(=O)CCN1CCOCC1)C(=O)N[C@@H](CC(C)C)C(=O)NC(C)(C)C(=O)N[C@@H](CC(C)C)C(=O)N[C@@H](CC(C)C)C(=O)NC(C)(C)C(=O)NC(C)(C)C(=O)NCCC(=O)N[C@@H](C)CN(C)C [Compound 5650, (2S)-N-[(1S)-1-[(1-{[(1S)-1-{[(1S)-1-{[1-({1-[(2-{[(2S)-1-(dimethylamino)propan-2-yl]carbamoyl}ethyl)carbamoyl]-1-methylethyl}carbamoyl)-1-methylethyl]carbamoyl}-3-methylbutyl]carbamoyl}-3-methylbutyl]carbamoyl}-1-methylethyl)carbamoyl]-3-methylbutyl]-2-{[(2S)-1-[3-(morpholin-4-yl)propanoyl]pyrrolidin-2-yl]formamido}decanamide] (X13-P[Gly(octyl)]L[Aib]LL[Aib][Aib][βAla]-{NH((S)CH(Me)CH2NMe2)})",15.3 nM,105 nM,133 nM,11.1 nM,188 nM,492 nM
"CCCCCCCCCCCC(=O)N1CCC[C@H]1C(=O)N[C@@H](CCCCCCCC)C(=O)N[C@@H](CC(C)C)C(=O)NC(C)(C)C(=O)N[C@@H](CC(C)C)C(=O)N[C@@H](CC(C)C)C(=O)NC(C)(C)C(=O)NC(C)(C)C(=O)NCCC(=O)N[C@@H](C)CN(C)C [Compound 5651, (2S)-N-[(1S)-1-[(1-{[(1S)-1-{[(1S)-1-{[1-({1-[(2-{[(2S)-1-(dimethylamino)propan-2-yl]carbamoyl}ethyl)carbamoyl]-1-methylethyl}carbamoyl)-1-methylethyl]carbamoyl}-3-methylbutyl]carbamoyl}-3-methylbutyl]carbamoyl}-1-methylethyl)carbamoyl]-3-methylbutyl]-2-{[(2S)-1-dodecanoylpyrrolidin-2-yl]formamido}decanamide] (Lauroyl-P[Gly(octyl)]L[Aib]LL[Aib][Aib][βAla]-{NH((S)CH(Me)CH2NMe2)})",3.3 nM,53 nM,1370 nM,0.8 nM,707 nM,498 nM
"CCCCCCCC[C@H](NC(=O)[C@@H]1CCCN1S(C)(=O)=O)C(=O)N[C@@H](CC(C)C)C(=O)NC(C)(C)C(=O)N[C@@H](CC(C)C)C(=O)N[C@@H](CC(C)C)C(=O)NC(C)(C)C(=O)NC(C)(C)C(=O)NCCC(=O)N[C@@H](C)CN(C)C [Compound 5652, (2S)-N-[(1S)-1-[(1-{[(1S)-1-{[(1S)-1-{[1-({1-[(2-{[(2S)-1-(dimethylamino)propan-2-yl]carbamoyl}ethyl)carbamoyl]-1-methylethyl}carbamoyl)-1-methylethyl]carbamoyl}-3-methylbutyl]carbamoyl}-3-methylbutyl]carbamoyl}-1-methylethyl)carbamoyl]-3-methylbutyl]-2-{[(2S)-1-methanesulfonylpyrrolidin-2-yl]formamido}decanamide] (Ms-P[Gly(octyl)]L[Aib]LL[Aib][Aib][βAla]-{NH((S)CH(Me)CH2NMe2)})",4 nM,8.1 nM,436 nM,4.6 nM,166 nM,1410 nM
"CCCCCCCC[C@H](NC(=O)[C@@H]1CCCN1S(=O)(=O)c1cccc2c(N(C)C)cccc12)C(=O)N[C@@H](CC(C)C)C(=O)NC(C)(C)C(=O)N[C@@H](CC(C)C)C(=O)N[C@@H](CC(C)C)C(=O)NC(C)(C)C(=O)NC(C)(C)C(=O)NCCC(=O)N[C@@H](C)CN(C)C [Compound 5765, (2S)-2-{[(2S)-1-{[5-(dimethylamino)naphthalen-1-yl]sulfonyl}pyrrolidin-2-yl]formamido}-N-[(1S)-1-[(1-{[(1S)-1-{[(1S)-1-{[1-({1-[(2-{[(2S)-1-(dimethylamino)propan-2-yl]carbamoyl}ethyl)carbamoyl]-1-methylethyl}carbamoyl)-1-methylethyl]carbamoyl}-3-methylbutyl]carbamoyl}-3-methylbutyl]carbamoyl}-1-methylethyl)carbamoyl]-3-methylbutyl]decanamide] (Dansyl-P[Gly(octyl)]L[Aib]LL[Aib][Aib][βAla]-{NH((S)CH(Me)CH2NMe2)})",1.6 nM,4.3 nM,126 nM,1 nM,203 nM,250 nM
